Reference: PMC4728560 (Scientific Reports, 2016)

Tested on: Bcl-xL-Y101K
Test: Heterocomplex formation with Bcl-xL-Y101K mutant
Format: binding, human
Description: When not specified, proteins tested for binding experiments were mixed at 100 μM, dialyzed against 10 mM CHES pH 9, 50 mM NaCl, 1 mM DTT or TCEP, depending on the analysis, and heated overnight at 30 °C.
For binding experiments, 100 to 200PL of protein mixture were loaded on a size exclusion chromatography (S200, GE Healthcare) column, while elution profiles were measured by UV absorption at 280 nm.
SEC-MALS experiments were performed on a multi-angle light scattering detector (miniDAWN TREOS, Wyatt Technologies) coupled in-line with SEC and an interferometric refractometer (Optilab T-rEX, Wyatt Technologies). See Supplementary Information for full details.
Prior to any mass spectrometry experiment, protein buffer was exchanged twice against a 50 mM ammonium acetate (NH4Ac) solution at pH 9.0 using microcentrifuge gel filtration columns (Zeba 0.5 ml, Thermo Scientific, Rockford, IL). Protein concentration was determined spectrophotometrically. […]
Gel filtration. For binding experiments, 100 to 200PL of protein mixture were loaded on a size exclusion chromatography (S200, GE Healthcare) column, while elution profiles were measured by UV absorption at 280nm. […]
For MALS experiments, the molar mass was determined by construction of Debye plot using Zimm formalism (plot of K*c/R(T) as a function of sin2(T/2)) at 0.5 and 1sec data intervals, for Superdex S200 column. […]

Q: For “TCTP: Translationally Controlled Tumor Protein (TCTP/tpt1), recombinant full-length”, which “complex formation with Bcl-xL-Y101K mutant” value is on record?
A: unable to form heterocomplexes
